Laboratory results from US8399403B2, “Chemical linkers and conjugates thereof” (priority 2004, dated 2013).

Tests used:
[1] = Rate of cyclization of 6-membered hydrazine linker in buffer; format: physicochemical; details: incubated in buffer at pH 7.4, assessed over time
Experimental: A duocarmycin analog conjugated to a dimethyl 6-membered hydrazine linker was incubated in buffer at pH 7.4 for 24 hours and the generation of cyclized product resulting from cyclization of the hydrazine linker, thereby releasing free duocarmycin analog, was assessed over time.
A duocarmycin analog conjugated to a gem-dimethyl 6-membered hydrazine linker was incubated in buffer at pH 7.4 and the generation of cyclized product resulting from cyclization of the hydrazine linker, thereby releasing free duocarmycin analog, was assessed over time.

[2] = in vitro and in experimental animals; cited from earlier work
experimental animals = details: cited from earlier work

SMILES | generation of cyclized product resulting from cyclization of the hydrazine linker (release of free duocarmycin analog) [1] | antitumor and antimicrobial activity [2] | toxicity in experimental animals (experimental animals)
COC(=O)c1c(C)[nH]c2c(OC(=O)N(C)C(C)(C)C(=O)N(C)N)cc3c(c12)[C@H](CCl)CN3C(=O)c1cc2cc(OC)ccc2o1 | proceeding to completion within a few minutes | – | –
COc1c(O)c2c(c3cc(C(=O)N4CCc5c4c(O)c(OC)c4[nH]c(C(=O)N6CC7CC78C6=CC(=O)c6[nH]cc(C)c68)cc54)[nH]c13)CCN2C(N)=O (stereo not shown) [CC-1065] | – | potent antitumor and antimicrobial activity | causes delayed death in experimental animals
COC(=O)c1c(C)[nH]c2c(OC(=O)N(C)CC(=O)N(C)N)cc3c(c12)[C@H](CCl)CN3C(=O)c1cc2cc(OC)ccc2o1 | Minimal amounts of cyclized product were detected over 24 hours | – | –
